{"source": "patent US20050096323A1", "about": "“Diketopiperazine derivatives to inhibit thrombin” (NovoScience Pharma Inc., priority 1999, published 2005)", "key": {"SD rats [1]": {"test_system": "SD rats", "assay": "Acute myocardial infarction by coronary artery ligation in rats;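 for CK (u/ml): blood collected at end of 6 h (i.v.) or 8 h (intraduodenal) ECG observation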;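 for LDH (u/ml): blood collected at end of 6 h (i.v.) or 8 h (intraduodenal) ECG observation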", "type": "in vivo, rat", "conditions": "for CK (u/ml) / LDH (u/ml): serum", "experimental": "The drugs were administered 8 to 10 min after the coronary artery was ligated."}, "SD rats [2]": {"test_system": "SD rats", "assay": "RT, TT, PT, APTT and FIB in rat plasma after administration", "type": "in vivo", "set-up": "FIB (Fibrillation) / RT (Clot Retraction Time) / TT (Thrombin Time): unit not given here", "description": "Blood was taken at 0.5 h and 1.5 h after i.v. injection and at 1 h and 3 h after i.g. and plasma RT,TT,PT,APTT and FIB were determined."}, "[3]": {"conditions": "0.125 mg/kg i.v., 0 min after ligation (before drug)"}, "[4]": {"conditions": "0.125 mg/kg i.v., 10 min after ligation"}, "[5]": {"conditions": "0.125 mg/kg i.v., 30 min after ligation"}, "[6]": {"conditions": "0.125 mg/kg i.v., 6 h after ligation"}, "[7]": {"conditions": "0.25 mg/kg i.v., 0 min after ligation (before drug)"}, "[8]": {"conditions": "0.25 mg/kg i.v., 10 min after ligation"}, "[9]": {"conditions": "0.25 mg/kg i.v., 30 min after ligation"}, "[10]": {"conditions": "0.25 mg/kg i.v., 6 h after ligation"}, "[11]": {"conditions": "75 mg/kg intraduodenum, 0 min after ligation (before drug)"}, "[12]": {"conditions": "75 mg/kg intraduodenum, 10 min after ligation"}, "[13]": {"conditions": "75 mg/kg intraduodenum, 30 min after ligation"}, "[14]": {"conditions": "75 mg/kg intraduodenum, 6 h after ligation"}}, "note": "Structures can show the parent of a compound that is named as a salt."}
{"compound": "CC1CNc2c(cccc2S(=O)(=O)N2C(=O)C3CC(C)CCN3C(=O)C2CCCNC(=N)N)C1", "note": "[NPI1999, (3S,6R,8R)-Bicyclo[4.4.0]-1,4-diaza-3-(3-guanidinopropyl)-4-N-(1,2,3,4-tetrahydro-3-methyl-8-quinolinesulfonyl)-8-methyl-2,5-decanedione, hydrochoride salt]", "values": [{"measurement": "Infarction Area (%)", "setting": "SD rats [1]; 0.125 mg/kg i.v.", "result": "26.40 ± 7.42", "unit": "%"}, {"measurement": "S point in electrocardiogram", "setting": "SD rats [1]; [3]", "result": "0.33 ± 0.12"}, {"measurement": "T wave in electrocardiogram", "setting": "SD rats [1]; [3]", "result": "0.19 ± 0.15"}, {"measurement": "S point in electrocardiogram", "setting": "SD rats [1]; [4]", "result": "0.34 ± 0.19"}, {"measurement": "T wave in electrocardiogram", "setting": "SD rats [1]; [4]", "result": "0.17 ± 0.18"}, {"measurement": "S point in electrocardiogram", "setting": "SD rats [1]; [5]", "result": "0.27 ± 0.21"}, {"measurement": "T wave in electrocardiogram", "setting": "SD rats [1]; [5]", "result": "0.18 ± 0.23"}, {"measurement": "S point in electrocardiogram", "setting": "SD rats [1]; [6]", "result": "0.08 ± 0.14"}, {"measurement": "T wave in electrocardiogram", "setting": "SD rats [1]; [6]", "result": "0.02 ± 0.16"}, {"measurement": "Infarction Area (%)", "setting": "SD rats [1]; 0.25 mg/kg i.v.", "result": "25.66 ± 7.32", "unit": "%"}, {"measurement": "S point in electrocardiogram", "setting": "SD rats [1]; [7]", "result": "0.33 ± 0.17"}, {"measurement": "T wave in electrocardiogram", "setting": "SD rats [1]; [7]", "result": "0.19 ± 0.11"}, {"measurement": "S point in electrocardiogram", "setting": "SD rats [1]; [8]", "result": "0.42 ± 0.20"}, {"measurement": "T wave in electrocardiogram", "setting": "SD rats [1]; [8]", "result": "0.27 ± 0.13"}, {"measurement": "S point in electrocardiogram", "setting": "SD rats [1]; [9]", "result": "0.34 ± 0.22"}, {"measurement": "T wave in electrocardiogram", "setting": "SD rats [1]; [9]", "result": "0.26 ± 0.17"}, {"measurement": "S point in electrocardiogram", "setting": "SD rats [1]; [10]", "result": "0.24 ± 0.18"}, {"measurement": "T wave in electrocardiogram", "setting": "SD rats [1]; [10]", "result": "0.15 ± 0.11"}, {"measurement": "Infarction Area (%)", "setting": "SD rats [1]; 75 mg/kg intraduodenum", "result": "30.98 ± 7.41", "unit": "%"}, {"measurement": "S point in electrocardiogram", "setting": "SD rats [1]; [11]", "result": "0.26 ± 0.13"}, {"measurement": "T wave in electrocardiogram", "setting": "SD rats [1]; [11]", "result": "0.12 ± 0.11"}, {"measurement": "S point in electrocardiogram", "setting": "SD rats [1]; [12]", "result": "0.28 ± 0.07"}, {"measurement": "T wave in electrocardiogram", "setting": "SD rats [1]; [12]", "result": "0.15 ± 0.09"}, {"measurement": "S point in electrocardiogram", "setting": "SD rats [1]; [13]", "result": "0.28 ± 0.10"}, {"measurement": "T wave in electrocardiogram", "setting": "SD rats [1]; [13]", "result": "0.18 ± 0.11"}, {"measurement": "S point in electrocardiogram", "setting": "SD rats [1]; [14]", "result": "0.18 ± 0.22"}, {"measurement": "T wave in electrocardiogram", "setting": "SD rats [1]; [14]", "result": "0.13 ± 0.11"}, {"measurement": "infarction area and serum LDH and CK", "setting": "SD rats [1]; i.v. 0.25 mg/kg and 0.125 mg/kg", "result": "significantly reduced"}, {"measurement": "infarction area and serum LDH and CK", "setting": "SD rats [1]; intra-duodenum 75 mg/kg", "result": "no significant effects"}, {"measurement": "CK (u/ml)", "setting": "SD rats [1]; 0.125 mg/kg i.v.", "result": "52.75 ± 16.25", "unit": "u/ml"}, {"measurement": "LDH (u/ml)", "setting": "SD rats [1]; 0.125 mg/kg i.v.", "result": "6254.1 ± 220.1", "unit": "u/ml"}, {"measurement": "CK (u/ml)", "setting": "SD rats [1]; 0.25 mg/kg i.v.", "result": "56.52 ± 14.48", "unit": "u/ml"}, {"measurement": "LDH (u/ml)", "setting": "SD rats [1]; 0.25 mg/kg i.v.", "result": "6125.7 ± 385.5", "unit": "u/ml"}, {"measurement": "CK (u/ml)", "setting": "SD rats [1]; 75 mg/kg intraduodenum", "result": "53.90 ± 20.60", "unit": "u/ml"}, {"measurement": "LDH (u/ml)", "setting": "SD rats [1]; 75 mg/kg intraduodenum", "result": "6393.3 ± 308.7", "unit": "u/ml"}, {"measurement": "APTT (Activated Partial Prothromboplastin Time)", "setting": "SD rats [2]; 0.125 mg/kg i.v., 0.5 h", "result": "28.0 ± 4.0"}, {"measurement": "FIB (Fibrillation)", "setting": "SD rats [2]; 0.125 mg/kg i.v., 0.5 h", "result": "4.2 ± 0.9"}, {"measurement": "PT (Prothrombin Time)", "setting": "SD rats [2]; 0.125 mg/kg i.v., 0.5 h", "result": "25.3 ± 5.8"}, {"measurement": "RT (Clot Retraction Time)", "setting": "SD rats [2]; 0.125 mg/kg i.v., 0.5 h", "result": "83.7 ± 9.7"}, {"measurement": "TT (Thrombin Time)", "setting": "SD rats [2]; 0.125 mg/kg i.v., 0.5 h", "result": "53.6 ± 11.1"}, {"measurement": "APTT (Activated Partial Prothromboplastin Time)", "setting": "SD rats [2]; 0.125 mg/kg i.v., 1.5 h", "result": "28.1 ± 4.6"}, {"measurement": "FIB (Fibrillation)", "setting": "SD rats [2]; 0.125 mg/kg i.v., 1.5 h", "result": "4.5 ± 1.2"}, {"measurement": "PT (Prothrombin Time)", "setting": "SD rats [2]; 0.125 mg/kg i.v., 1.5 h", "result": "25.0 ± 7.1"}, {"measurement": "RT (Clot Retraction Time)", "setting": "SD rats [2]; 0.125 mg/kg i.v., 1.5 h", "result": "60.4 ± 15.9"}, {"measurement": "TT (Thrombin Time)", "setting": "SD rats [2]; 0.125 mg/kg i.v., 1.5 h", "result": "39.2 ± 12.5"}, {"measurement": "APTT (Activated Partial Prothromboplastin Time)", "setting": "SD rats [2]; 0.25 mg/kg i.v., 0.5 h", "result": "46.7 ± 15.0"}, {"measurement": "FIB (Fibrillation)", "setting": "SD rats [2]; 0.25 mg/kg i.v., 0.5 h", "result": "2.09 ± 0.5"}, {"measurement": "PT (Prothrombin Time)", "setting": "SD rats [2]; 0.25 mg/kg i.v., 0.5 h", "result": "43.1 ± 17.8"}, {"measurement": "RT (Clot Retraction Time)", "setting": "SD rats [2]; 0.25 mg/kg i.v., 0.5 h", "result": "107.6 ± 33.7"}, {"measurement": "TT (Thrombin Time)", "setting": "SD rats [2]; 0.25 mg/kg i.v., 0.5 h", "result": "62.1 ± 15.8"}, {"measurement": "APTT (Activated Partial Prothromboplastin Time)", "setting": "SD rats [2]; 0.25 mg/kg i.v., 1.5 h", "result": "34.1 ± 10.3"}, {"measurement": "FIB (Fibrillation)", "setting": "SD rats [2]; 0.25 mg/kg i.v., 1.5 h", "result": "2.7 ± 0.8"}, {"measurement": "PT (Prothrombin Time)", "setting": "SD rats [2]; 0.25 mg/kg i.v., 1.5 h", "result": "34.6 ± 10.1"}]}
